Reference: PMC11253633, “Robust leishmanicidal upshot of some new diphenyl triazine-based molecules” (RSC Advances, 2024)
“Also recorded” adds a separate entry of the source. One block for each compound: values may come before it.

Assays:
[1] = tested on: L. donovani promastigotes; test: Anti-leishmanial screening against L. donovani promastigotes at a single concentration (MTT); type: cell-based, Leishmania donovani; conditions: 72 h at 26 °C, MTT
Description: Each candidate was evaluated for its in vitro activity against reference strain (MHOM/IN/83/AG83) of extracellular promastigotes and intracellular amastigotes of L. donovani.
Promastigotes were routinely cultured at 26 °C in medium M199 supplemented with 10% heat inactivated fetal bovine serum (FBS, Gibco Laboratories, Mumbai, India), penicillin 100 (IU mL^−1), streptomycin (100 μg mL^−1). Log phase promastigotes were sub-cultured every 72–96 h, the inoculum being 2 × 10^6 cells per mL.[29]
The triazin hybrids series was evaluated for their antileishmanial ability against L. donovani promastigotes in vitro. Promastigotes of L. donovani (1× 10^6 cells per mL) in M199 medium were incubated at 26 °C for 72 h with each compound at a concentration of 100 μM. Miltefosine (MTF) was used as a reference drug, 0.2% DMSO as solvent control. Parasites with media alone were taken as control. Parasite viability was achieved by MTT assay after 72 h (Sharma et al. 2023).[30]

[2] = tested on: L. donovani promastigotes; test: Dose-dependent anti-promastigote activity and determination of IC50 (MTT); type: cell-based; conditions: Leishmania donovani, 72 h, 3 days at 26 °C
Description: MTF was used as a standard antileishmanial drug control. The cell viability was evaluated (by MTT Assay) and the mean percentage viability was calculated as follows: Mean cell number of treated parasites/mean cell number of untreated parasites × 100. The 50 and 90% inhibitory concentration (IC50) i.e., the concentration of drugs that decreased the cell growth by 50 and 90% respectively, was determined by graphical extrapolation after plotting the graph of percentage viability vs. concentration of the drug.[31]
Parasite viability was not affected by DMSO (0.2%, data not shown) used as solvent control.[33]

[3] = tested on: L. donovani amastigotes; test: Anti-amastigote assay in infected THP-1 macrophages (Giemsa); type: cell-based, Leishmania donovani; conditions: for IC50: infected THP-1 macrophages, 72 h
Description: To evaluate the anti-leishmanial effect of the compound T4 and T7 on intracellular L. donovani parasites, macrophage was infected with stationary -phase L. donovani for 6 h. The cells were then washed with saline to remove any non-internalised parasites. To assess the effect of compounds T4 and T7 on intracellular parasites at early stages of infection, macrophages were subsequently treated with T4 and T7 at concentrations of 100, 50, 25, 12.5, or 6.25 μM (refer to Table 3 and Fig. 7) for 6, 24, or 48 hours.
THP-1 cells (5 × 10^5 cells per mL) were cultivated in RPMI-1640 media (Roswell Park Memorial Institute 1640) (Sigma-Aldrich, USA), supplemented with 10% fetal calf serum and maintained at 37 °C with 5% CO2 using phorbol ester as the inducer. These cells were added on circular coverslips (1 × 10^6 cells per mL). Promastigotes of L. donovani were introduced at 1 : 20 ratio. Treatment of the samples was carried out at doses of 100, 50, 25, 12.5, 6.25 and 3.125 μM/72 h. After being taken off, the coverslips were stained with Giemsa. The rate of macrophage infection was then ascertained.

[4] = tested on: Human macrophage THP-1 cell line; test: Cytotoxicity assay on THP-1 cell line (MTT); type: cell-based; conditions: 3.125–100 μM
Description: The cell lines were incubated for 48 h at 37 °C in a CO2 incubator with increasing concentrations of test compounds and viability was ascertained. Each point or bar corresponds to the mean ± SEM of triplicate samples and is representative of one of three independent experiments.
THP-1 human monocytic cells were grown at 37 °C in medium RPMI-1640 (pH 7.4, Sigma-Aldrich, St. Louis, MO, USA) supplemented with 10% heat-inactivated FBS for 48 to 72 h in a humidified atmosphere of 5% CO2 and sub-cultured in fresh RPMI-1640 medium at an average density 2 × 10^5 cells per mL (Sharma et al. 2023).[30]
Human macrophage THP-1 cell line of 0.5 × 10^6 cells per mL seeded in RPMI-1640 medium (Sigma-Aldrich, USA) supplemented with 10% FBS (GIBCO) in presence of 5% CO2 at 37 °C in triplicate in 96 well culture plate. The cells were treated with two-fold serially diluted concentrations (100–3.125 μM) of the candidate molecules for 72 h. The IC50 was calculated using MTT assay (Sharma et al. 2023).[30]

[5] = tested on: L. donovani promastigotes; test: Determination of promastigote cellular morphology (light microscopy); type: cell-based, Leishmania donovani; conditions: 25, 50 and 100 μM, 72 h, light microscopy 40×
Description: For the evident of morphological changes, the promastigotes (Fig. 3 (C to L)) were incubated in presence of compound T7, T4 and control Ampho B with the different concentration 25 μM, 50 μM, 100 μM shown in (Fig. 3C to L) were analysed by light microscopy (40×magnification) compared to untreated cells (Fig. 4A).
Fig. 4 Morphological Analysis of promastigote stage cells treated with compound T4 and MTF, compared to the untreated control (A) and DMSO treated control (B). Exponential-phase promastigotes (1 × 10^6 cells per mL) were incubated with 25 μm, 50 μm and 100 μm and analysed by light microscopy (40× magnification). (A) Untreated control (B) DMSO Treated cells (C–E) Ampho B, (F–H) T4 and T7 (I–K) at 25, 50, and 100 μM respectively. Scale bar in all is 10 μm.
Variations in the cellular morphology of Leishmania parasites due to the treatment with compounds T4 and T7 was detected microscopically. Briefly, the promastigotes (1× 10^6 cells per mL) were incubated in the absence or presence of test compounds and MTF and AmphoB for 72 h with different concentrations and observed under 40× objective of a phase-contrast microscope. […] Data were recorded by using NIS-Elements imaging software.[32]

[6] = tested on: L. infantum; parameters: method as in PMID 30817917; conditions: cited from earlier work
[7] = tested on: L. amazonensis; parameters: method as in PMID 30817917; conditions: cited from earlier work
[8] = tested on: promastigote; parameters: method as in PMID 29702355; conditions: read-out: IC50 against promastigote; cited from earlier work
[9] = tested on: amastigote; parameters: method as in PMID 29702355; conditions: read-out: IC50 against amastigote; cited from earlier work

IC50 [2]: 1070 nM | IC50 ([3]; Leishmania donovani, THP-1, 72 h): 5.18 µM | IC50 [3]: 7.19 µM | melting point: 210 to 212 °C
SMILES: COc1ccc(C(=O)CCSc2nnc(-c3ccccc3)c(-c3ccccc3)n2)cc1OC [T4, 1-(3,4-Dimethoxyphenyl)-3-((5,6-diphenyl-1,2,4-triazin-3-yl)thio)propan-1-one]
% Inhibition of L. donovani promastigotes ([1]; 100 μM): 99.67% | inhibition at 100 µM ([1]; Leishmania donovani, 72 h): > 90% | Percentage reduction of parasites (amastigote) ([3]; 6.25 μM): 66% | Percentage reduction of parasites (amastigote) ([3]; 12.5 μM): 68.80% | Percentage reduction of parasites (amastigote) ([3]; 25 μM): 70% | Percentage reduction of parasites (amastigote) ([3]; 50 μM): 74% | Percentage reduction of parasites (amastigote) ([3]; 100 μM): 78.0% | Inhibitory activity against amastigotes (in words) ([3]; 100–6.25 μM, infected macrophages): good inhibitory activity; also recorded: capable of inhibiting the growth | Cytotoxicity on THP-1 human macrophages (in words) [4]: nontoxic; also recorded: no adverse effects; also recorded: Absence of adverse toxicity | Cellular morphological alterations in promastigotes (in words) [5]: loss of flagella

SMILES: CN(C)c1ccnc2cc(Cl)ccc12 [7-chloro-N, N-dimethylquinolin-4-amine]
selectivity index against the axenic amastigotes ([6]; L. infantum axenic amastigotes): 137.6 | selectivity index against the promastigotes ([6]; L. infantum promastigotes): 154.6 | selectivity index against the axenic amastigotes ([7]; L. amazonensis axenic amastigotes): 74.3 | selectivity index against the promastigotes ([7]; L. amazonensis promastigotes): 86.4

SMILES: Clc1cc(Cl)ncn1 [compound 5]
IC50 [8]: < 25 µM | IC50 [9]: < 25 µM
